Experimental data: patent US20110105474A1, “HETEROCYCLIC DERIVATIVES AS HDAC INHIBITORS” (DAC S.r.l., priority 2008, published 2011)
Where a name gives a salt, the structure may show the parent alone.

Experiments:
Format in all cases: cell-based
K562 cells = assay: Cell growth, CellTiter-Glo Luminescent Cell Viability Assay, K562; settings: Homo sapiens, 72 h incubation
Procedure, shortened: (§1)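 K562, A549 and HCT-116 cells in exponential growth exposed to inhibitors at varying concentrations for 72 h. Viability read as ATP luminescence (CellTiter-Glo, 10 min at RT after lysis); IC50 from dose-response, reported as ranges.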

HCT-116 cells = assay: Cell growth, CellTiter-Glo Luminescent Cell Viability Assay, HCT-116; settings: Homo sapiens, 72 h incubation, read-out: IC50 HCT116
Procedure, shortened: as §1

A549 cells = assay: Cell growth, CellTiter-Glo Luminescent Cell Viability Assay, A549; settings: Homo sapiens, 72 h incubation
Procedure, shortened: as §1

Row | Structure (SMILES) | IC50 (K562 cells) | IC50 (HCT-116 cells) | IC50 (A549 cells)
1 | O=C(/C=C/c1cccc(/C=C/C(=O)N2CCC[C@@H](c3ccccc3)C2)c1)NO [Example 82, (E)-N-Hydroxy-3-{3-[(E)-3-oxo-3-((S)-3-phenyl-piperidin-1-yl)-propenyl]-phenyl}-acrylamide] | ≥ 3000 nM | ≥ 3000 nM | ≥ 3000 nM
2 | O=C(/C=C/c1cccc(/C=C/C(=O)N2CCN(c3cccc(Cl)c3)CC2)c1)NO [Example 85, (E)-3-(3-{(E)-3-[4-(3-Chloro-phenyl)-piperazin-1-yl]-3-oxo-propenyl}-phenyl)-N-hydroxy-acrylamide hydrochloride] | 1000 to 3000 nM | 1000 to 3000 nM | ≥ 3000 nM
3 | O=C(/C=C/c1cccc(/C=C/C(=O)N2CCC(Cc3ccccc3)CC2)c1)NO [Example 86, (E)-3-{3-[(E)-3-(4-Benzyl-piperidin-1-yl)-3-oxo-propenyl]-phenyl}-N-hydroxy-acrylamide] | ≥ 3000 nM | ≥ 3000 nM | ≥ 3000 nM
4 | O=C(/C=C/c1cccc(/C=C/C(=O)N2CCN(c3ccccc3Cl)CC2)c1)NO [Example 87, (E)-3-(3-{(E)-3-[4-(2-Chloro-phenyl)-piperazin-1-yl]-3-oxo-propenyl}-phenyl)-N-hydroxy-acrylamide hydrochloride] | 1000 to 3000 nM | 1000 to 3000 nM | ≥ 3000 nM
5 | N#Cc1ccc(N2CCN(C(=O)/C=C/c3cccc(/C=C/C(=O)NO)c3)CC2)cc1 [Example 88, (E)-3-(3-{(E)-3-[4-(4-Cyano-phenyl)-piperazin-1-yl]-3-oxo-propenyl}-phenyl)-N-hydroxy-acrylamide hydrochloride] | ≤ 1000 nM | ≤ 1000 nM | 1000 to 3000 nM
6 | O=C(/C=C/c1cccc(/C=C/C(=O)N2CCC=C(c3ccccc3)C2)c1)NO [Example 89, (E)-N-Hydroxy-3-{3-[(E)-3-oxo-3-(5-phenyl-3,6-dihydro-2H-pyridin-1-yl)-propenyl]-phenyl}-acrylamide] | ≥ 3000 nM | ≥ 3000 nM | ≥ 3000 nM
7 | O=C(/C=C/c1cccc(/C=C/C(=O)N2CCNC(c3ccccc3)C2)c1)NO (stereo not drawn) [Example 90, (E)-N-Hydroxy-3-{3-[(E)-3-oxo-3-(3-phenyl-piperazin-1-yl)-propenyl]phenyl}-acrylamide hydrochloride] | 1000 to 3000 nM | 1000 to 3000 nM | ≥ 3000 nM
8 | O=C(/C=C/c1cccc(/C=C/C(=O)N2CCN(c3ccc(C(F)(F)F)cc3)CC2)c1)NO [Example 91, (E)-N-Hydroxy-3-(3-{(E)-3-oxo-3-[4-(4-trifluoromethyl-phenyl)-piperazin-1-yl]-propenyl}-phenyl)-acrylamide hydrochloride] | 1000 to 3000 nM | 1000 to 3000 nM | 1000 to 3000 nM
9 | O=C(/C=C/c1cccc(/C=C/C(=O)N2CCCC(c3ccccc3F)C2)n1)NO (stereo not drawn) [Example 92, (E)-3-(6-{(E)-3-[3-(2-Fluoro-phenyl)-piperidin-1-yl]-3-oxo-propenyl}-pyridin-2-yl)-N-hydroxy-acrylamide hydrochloride] | ≤ 1000 nM | ≤ 1000 nM | ≤ 1000 nM
10 | O=C(/C=C/c1cccc(/C=C/C(=O)N2CCCC(c3cccc(F)c3)C2)n1)NO (stereo not drawn) [Example 93, (E)-3-(6-{(E)-3-[3-(3-Fluoro-phenyl)-piperidin-1-yl]-3-oxo-propenyl}-pyridin-2-yl)-N-hydroxy-acrylamide hydrochloride] | ≤ 1000 nM | ≤ 1000 nM | ≤ 1000 nM
11 | O=C(/C=C/c1cccc(/C=C/C(=O)N2CCCC(c3nc(-c4ccc(F)cc4)no3)C2)n1)NO (stereo not drawn) [Example 94, (E)-3-[6-((E)-3-{3-[3-(4-Fluoro-phenyl)-[1,2,4]oxadiazol-5-yl]-piperidin-1-yl}-3-oxo-propenyl)-pyridin-2-yl]-N-hydroxy-acrylamide hydrochloride] | ≤ 1000 nM | ≤ 1000 nM | 1000 to 3000 nM
12 | O=C(/C=C/c1cccc(/C=C/C(=O)N2CCC=C(c3ccccc3)C2)n1)NO [Example 95, (E)-N-Hydroxy-3-{6-[(E)-3-oxo-3-(5-phenyl-3,6-dihydro-2H-pyridin-1-yl)-propenyl]-pyridin-2-yl}-acrylamide hydrochloride] | ≤ 1000 nM | ≤ 1000 nM | ≤ 1000 nM
13 | O=C(/C=C/c1cccc(/C=C/C(=O)N2CCc3cc(-c4ccccc4)ccc3C2)n1)NO [Example 96, (E)-N-Hydroxy-3-{6-[(E)-3-oxo-3-(6-phenyl-3,4-dihydro-1H-isoquinolin-2-yl)-propenyl]-pyridin-2-yl}-acrylamide hydrochloride] | 1000 to 3000 nM | 1000 to 3000 nM | ≥ 3000 nM
14 | O=C(/C=C/c1cccc(/C=C/C(=O)N2CCc3nc(-c4ccccc4)sc3C2)n1)NO [Example 97, (E)-N-Hydroxy-3-{6-[(E)-3-oxo-3-(2-phenyl-6,7-dihydro-4H-thiazolo[5,4-c]pyridin-5-yl)-propenyl]-pyridin-2-yl}-acrylamide hydrochloride] | ≤ 1000 nM | ≤ 1000 nM | 1000 to 3000 nM
15 | O=C(/C=C/c1cccc(/C=C/C(=O)N2CCCc3nc(-c4ccccc4)sc32)n1)NO [Example 98, (E)-N-Hydroxy-3-{6-[(E)-3-oxo-3-(2-phenyl-6,7-dihydro-5H-thiazolo[5,4-b]pyridin-4-A-propenyl]-pyridin-2-yl}-acrylamide trifluoroacetate] | 1000 to 3000 nM | ≤ 1000 nM | 1000 to 3000 nM
